Experimental data: patent EP4603105A1, “PHARMACEUTICAL COMPOSITION CONTAINING CYCLIC COMPOUND HAVING SELECTIVE KRAS INHIBITORY EFFECT AGAINST HRAS AND NRAS” (CHUGAI SEIYAKU KABUSHIKI KAISHA, priority 2022, dated 2024)
pIC50, pKd: −log10 of the molar value. Like-named read-outs stand apart in the source and are kept apart here.

What was measured:
[1] = molecular target: GDP-bound KRAS wild-type protein (Homo sapiens, UniProt P01116); experiment: Binding to KRAS by surface plasmon resonance (SPR), dissociation constant KD
Chain of GDP-bound KRAS wild-type protein (P01116 1-188 isoform P01116-2): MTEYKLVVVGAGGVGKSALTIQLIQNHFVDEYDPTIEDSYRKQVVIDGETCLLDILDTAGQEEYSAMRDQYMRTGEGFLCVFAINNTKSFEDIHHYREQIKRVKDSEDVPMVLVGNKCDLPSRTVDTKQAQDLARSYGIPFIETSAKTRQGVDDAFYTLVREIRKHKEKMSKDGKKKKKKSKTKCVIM
Procedure, shortened: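 Recombinant RAS proteins bearing a biotinylated Avi tag and loaded with GDP served as the captured ligand, recaptured fresh every cycle. Binding responses were referenced to an uncoated surface and a buffer-only blank cycle. Dissociation constants were obtained by 1:1 model fitting at 30°C.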

[2] = molecular target: GDP-bound NRAS wild-type protein (Homo sapiens, UniProt P01111); experiment: Binding to NRAS by surface plasmon resonance (SPR), KD and KD ratio to KRAS
Chain of GDP-bound NRAS wild-type protein (P01111 whole entry): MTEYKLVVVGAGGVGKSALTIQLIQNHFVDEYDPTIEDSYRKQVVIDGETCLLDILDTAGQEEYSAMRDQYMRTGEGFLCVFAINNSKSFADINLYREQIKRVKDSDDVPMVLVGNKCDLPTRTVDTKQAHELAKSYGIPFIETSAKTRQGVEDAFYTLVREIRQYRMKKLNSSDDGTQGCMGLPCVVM
Procedure, shortened: (§1)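 GDP-bound biotin-Avi RAS captured at ~100–300 RU, 30°C, pH 7.4 HBS containing 10 µM GDP, 10 mM MgCl2, 1 mM DTT, 0.01% Tween 20 and 4% DMSO. KD by 1:1 fitting.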

[3] = molecular target: HRAS wild-type protein (Homo sapiens, UniProt P01112); experiment: Binding to HRAS by surface plasmon resonance (SPR), KD and KD ratio to KRAS
Chain of HRAS wild-type protein (P01112 whole entry): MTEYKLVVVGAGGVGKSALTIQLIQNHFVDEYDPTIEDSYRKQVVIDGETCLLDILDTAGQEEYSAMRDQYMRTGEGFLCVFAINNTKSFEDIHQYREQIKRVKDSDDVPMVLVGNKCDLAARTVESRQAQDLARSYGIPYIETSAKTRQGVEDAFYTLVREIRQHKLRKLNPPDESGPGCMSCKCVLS
Procedure, shortened: as §1

[4] = tested on: human lung cancer strain NCI-H441; experiment: NCI-H441 cell proliferation inhibitory activity (CellTiter-Glo, 4 days); type: cell-based; conditions: read-out: NCl-H441 IC50
Procedure, shortened: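 Readout: […] after the ATP-based reagent. Compound: serial dilutions in dimethyl sulfoxide.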

[5] = ratio of KD for GDP-bound NRAS wild-type protein to KD for KRAS
[6] = ratio of KD for HRAS wild-type protein to KD for KRAS
[7] = Single Cycle Kinetics, 1:1 binding model
[8] = ratio of KD with respect to GDP-bound NRAS wild-type protein to KD with respect to KRAS
[9] = ratio of KD with respect to HRAS wild-type protein to KD with respect to KRAS
[10] = 50% proliferation inhibitory concentration, four days

| pKd ([1]; Single Cycle Kinetics) | pIC50 ([4]; NCI-H441 cells, 4 days) | pKd ([1]; 1:1 binding model) | pKd [1, 7] | pIC50 [4, 10] | Compound | NRAS /KRAS [2, 5] | HRAS /KRAS [3, 6] | NRAS /KRAS [2, 8] | HRAS /KRAS [3, 9] |
| --- | --- | --- | --- | --- | --- | --- | --- | --- | --- |
| 10.01 | 8.22 |  |  |  | C#CC[C@H]1C(=O)N[C@@H]([C@@H](C)CC)C(=O)N(C2CC2)CC(=O)N(C)[C@H]2C/C=C\CCN(C2=O)[C@@H](Cc2ccc(C(F)(F)F)cc2)C(=O)N(C)CC(=O)N[C@@H](CCc2ccc(C(F)(F)F)c(OC)c2)C(=O)N2C[C@H](OCC)C[C@H]2C(=O)N(C)C2(CCC2)C(=O)N(C)[C@@H](C2CCCC2)C(=O)N(C)[C@H](C(=O)N(C)C)CC(=O)N1C [PP3242] | A (a compound having 10 or more and less than 20 is denoted as A) | A (a compound having 10 or more and less than 20 is denoted as A) |  |  |
| 8.34 | 6.98 |  |  |  | C=CC[C@H]1C(=O)N(C)[C@H](C(=O)N(C)C)CC(=O)N(C)[C@@H](CCC)C(=O)N[C@@H]([C@@H](C)CC)C(=O)N2CCC[C@H]2C(=O)N(C)[C@H]2C/C=C\CCN(C2=O)[C@@H](Cc2ccc(C(F)(F)F)cc2)C(=O)N(C)CC(=O)N[C@@H](CCc2cc(F)c(C(F)(F)F)c(F)c2)C(=O)N2C[C@H](OCC)C[C@H]2C(=O)N(C)C2(CCC2)C(=O)N1C [PP3338] | A (a compound having 10 or more and less than 20 is denoted as A) | A (a compound having 10 or more and less than 20 is denoted as A) |  |  |
|  | 7.13 | 9.00 |  |  | CCCOC[C@H]1C(=O)N[C@@H]([C@@H](C)CC)C(=O)N(C)CC(=O)N(C)[C@H]2C/C=C\CCN(C2=O)[C@@H](CC2CCC(F)(F)CC2)C(=O)N(C)CC(=O)N[C@@H](CCc2ccc(C(F)(F)F)c(Cl)c2)C(=O)N2C[C@H](OCC)C[C@H]2C(=O)NC2(CC(C)(C)C2)C(=O)N(C)[C@@H](C(CC)CC)C(=O)N(C)[C@H](C(=O)N(C)C)CC(=O)N1C [PP2484] | A (a compound having 10 or more and less than 20 is denoted as A) | A (a compound having 10 or more and less than 20 is denoted as A) |  |  |
|  |  |  | 10.35 | 7.91 | CCOC[C@H]1C(=O)N[C@@H]([C@@H](C)CC)C(=O)N(C)CC(=O)N(C)[C@H]2C/C=C\CCN(C2=O)[C@@H](Cc2ccc(C(F)(F)F)cc2)C(=O)N(C)CC(=O)N[C@@H](CCc2cc(F)c(C(F)(F)F)c(F)c2)C(=O)N2C[C@H](OCC)C[C@H]2C(=O)NC2(CCC2)C(=O)N(C)[C@@H](C2CCCC2)C(=O)N(C)[C@H](C(=O)N(C)C)CC(=O)N1C [PP1266] |  |  | A (a compound having 10 or more and less than 20 is denoted as A) | A (a compound having 10 or more and less than 20 is denoted as A) |
| 10.06 | 8.54 |  |  |  | C#CC[C@H]1C(=O)N[C@@H]([C@@H](C)CC)C(=O)N2CCC[C@H]2C(=O)N(C)[C@H]2C/C=C\CCN(C2=O)[C@@H](Cc2ccc(C(F)(F)F)cc2)C(=O)N(C)CC(=O)N[C@@H](CCc2cc(F)c(C(F)(F)F)c(F)c2)C(=O)N2C[C@H](OCC)C[C@H]2C(=O)N(C)C2(CCC2)C(=O)N(C)[C@@H](C2CCCC2)C(=O)N(C)[C@H](C(=O)N(C)C)CC(=O)N1C [PP3253] | A (a compound having 10 or more and less than 20 is denoted as A) | B (a compound having 3 or more and less than 10 is denoted as B) |  |  |
| 9.29 | 7.93 |  |  |  | CCC[C@H]1C(=O)N[C@@H]([C@@H](C)CC)C(=O)N(C2CC2)CC(=O)N(C)[C@H]2C/C=C\CCN(C2=O)[C@@H](Cc2ccc(C)cc2)C(=O)N(C)CC(=O)N[C@@H](CCc2cc(F)c(C(F)(F)F)c(F)c2)C(=O)N2C[C@H](OCC)C[C@H]2C(=O)NC2(CCCC2)C(=O)N(C)[C@@H](C2CCCC2)C(=O)N(C)[C@H](C(=O)N(C)C)CC(=O)N1C [PP3479] | A (a compound having 10 or more and less than 20 is denoted as A) | A (a compound having 10 or more and less than 20 is denoted as A) |  |  |
|  | 7.09 | 8.89 |  |  | CCOC[C@H]1C(=O)N[C@@H]([C@@H](C)CC)C(=O)N(C)CC(=O)N(C)[C@H]2C/C=C\CCN(C2=O)[C@@H](CC2CCC(F)(F)CC2)C(=O)N(C)CC(=O)N[C@@H](CCc2ccc(C(F)(F)F)c(OC)c2)C(=O)N2C[C@@H](C)C[C@H]2C(=O)NC2(CC(C)(C)C2)C(=O)N(C)[C@@H](C(CC)CC)C(=O)N(C)[C@H](C(=O)N(C)C)CC(=O)N1C [PP2458] | A (a compound having 10 or more and less than 20 is denoted as A) | A (a compound having 10 or more and less than 20 is denoted as A) |  |  |

Continued, molecule first:

| Compound | pKd ([1]; Single Cycle Kinetics) | pIC50 ([4]; NCI-H441 cells, 4 days) | pKd ([1]; 1:1 binding model) | pKd [1, 7] | pIC50 [4, 10] | NRAS /KRAS [2, 5] | HRAS /KRAS [3, 6] | NRAS /KRAS [2, 8] | HRAS /KRAS [3, 9] |
| --- | --- | --- | --- | --- | --- | --- | --- | --- | --- |
| CCCOC[C@H]1C(=O)N[C@@H]([C@@H](C)OCC)C(=O)N2CCC[C@H]2C(=O)N(C)[C@H]2C/C=C\CCN(C2=O)[C@@H](Cc2ccc(C)cc2)C(=O)N(C)CC(=O)N[C@@H](CCc2cc(F)c(C(F)(F)F)c(F)c2)C(=O)N2C[C@H](OCC)C[C@H]2C(=O)NC2(CC(C)(C)C2)C(=O)N(C)[C@@H](C2CCCC2)C(=O)N(C)[C@H](C(=O)N(C)CC)CC(=O)N1C [PP2432] |  | 6.86 | 8.85 |  |  | A (a compound having 10 or more and less than 20 is denoted as A) | A (a compound having 10 or more and less than 20 is denoted as A) |  |  |
| CCC[C@H]1C(=O)N[C@@H]([C@@H](C)CC)C(=O)N(C)CC(=O)N(C)[C@H]2C/C=C\CCN(C2=O)[C@@H](CC2CCCCC2)C(=O)N(C)CC(=O)N[C@@H](CCc2cc(F)c(C(F)(F)F)c(F)c2)C(=O)N2C[C@H](OCC)C[C@H]2C(=O)NC2(CCC2)C(=O)N(C)[C@@H](C2CCCC2)C(=O)N(C)[C@H](C(=O)N(C)C)CC(=O)N1C [PP1464] |  |  |  | 9.82 | 7.49 |  |  | A (a compound having 10 or more and less than 20 is denoted as A) | A (a compound having 10 or more and less than 20 is denoted as A) |
| CCCN1CC(=O)N(C)[C@H]2C/C=C\CCN(C2=O)[C@@H](Cc2ccc(C(F)F)cc2)C(=O)N(C)CC(=O)N[C@@H](CCc2cc(F)c(C(F)(F)F)c(F)c2)C(=O)N2C[C@H](OC(C)C)C[C@H]2C(=O)N(C)C2(CCC2)C(=O)N(C)[C@@H](C(CC)CC)C(=O)N(C)[C@H](C(=O)N(C)C)CC(=O)N(C)[C@@H](CC(F)F)C(=O)N[C@@H](C2CCCC2)C1=O [PP3497] | 9.13 | 7.67 |  |  |  | A (a compound having 10 or more and less than 20 is denoted as A) | A (a compound having 10 or more and less than 20 is denoted as A) |  |  |
| CCO[C@@H]1C[C@H]2C(=O)NC3(CCC3)C(=O)N(C)[C@@H](C3CCCC3)C(=O)N(C)[C@H](C(=O)N(C)C)CC(=O)N(C)[C@@H](CC)C(=O)N[C@@H]([C@@H](C)CC)C(=O)N(C)CC(=O)N(C)[C@H]3C/C=C\CCN(C3=O)[C@@H](Cc3ccc(C(F)(F)F)cc3)C(=O)N(C)CC(=O)N[C@@H](CCc3ccc(C(F)(F)F)c(C)c3)C(=O)N2C1 [PP1265] |  |  |  | 9.77 | 7.85 |  |  | A (a compound having 10 or more and less than 20 is denoted as A) | B (a compound having 3 or more and less than 10 is denoted as B) |
| CCO[C@@H]1C[C@H]2C(=O)NC3(CCC3)C(=O)N(C)[C@@H](C3CCCC3)C(=O)N(C)[C@H](C(=O)N3CCCC3)CC(=O)N(C)[C@@H](CC(C)C)C(=O)N[C@@H]([C@@H](C)CC)C(=O)N(C)CC(=O)N(C)[C@H]3C/C=C\CCN(C3=O)[C@@H](Cc3ccc(C(F)(F)F)cc3)C(=O)N(C)CC(=O)N[C@@H](CCc3cc(F)c(C(F)(F)F)c(F)c3)C(=O)N2C1 [PP1295] |  |  |  | 9.92 | 8.21 |  |  | AA (a compound having 20 or more is denoted as AA) | A (a compound having 10 or more and less than 20 is denoted as A) |
| CCC[C@H]1C(=O)N[C@@H]([C@@H](C)CC)C(=O)N2CCC[C@H]2C(=O)N(C)[C@H]2C/C(F)=C\CCN(C2=O)[C@@H](Cc2ccc(C(F)(F)F)cc2)C(=O)N(C)CC(=O)N[C@@H](CCc2ccc(C(F)(F)F)c(OC)c2)C(=O)N2C[C@H](OCC)C[C@H]2C(=O)N(C)C2(CCC2)C(=O)N(C)[C@@H](C2CCCC2)C(=O)N(C)[C@H](C(=O)N(C)C)CC(=O)N1C [PP3509] | 9.39 | 8.03 |  |  |  | B (a compound having 3 or more and less than 10 is denoted as B) | B (a compound having 3 or more and less than 10 is denoted as B) |  |  |
| CCC[C@H]1C(=O)N[C@@H]([C@@H](C)CC)C(=O)N(C)CC(=O)N(C)[C@H]2C/C=C\CCN(C2=O)[C@@H](Cc2ccc(C)cc2)C(=O)N(C)CC(=O)N[C@@H](CCc2cc(F)c(C(F)(F)F)c(F)c2)C(=O)N2CC[C@H](OC)[C@H]2C(=O)N(C)C2(CCC2)C(=O)N(C)[C@@H](C2CCCC2)C(=O)N(C)[C@H](C(=O)N(C)C)CC(=O)N1C [PP3287] | 10.24 | 8.27 |  |  |  | A (a compound having 10 or more and less than 20 is denoted as A) | B (a compound having 3 or more and less than 10 is denoted as B) |  |  |
| CCCO[C@@H]1C[C@H]2C(=O)NC3(CC(C)(C)C3)C(=O)N(C)[C@@H](C3CCCC3)C(=O)N(C)[C@H](C(=O)N(C)CC)CC(=O)N(C)[C@@H](COCC)C(=O)N[C@@H]([C@@H](C)CC)C(=O)N3C[C@@H](C)C[C@H]3C(=O)N(C)[C@H]3C/C=C\CCN(C3=O)[C@@H](Cc3ccc(C(F)(F)F)cc3)C(=O)N(C)CC(=O)N[C@@H](CCc3ccc(C(F)(F)F)c(Cl)c3)C(=O)N2C1 [PP3407] | 8.42 | 7.13 |  |  |  | A (a compound having 10 or more and less than 20 is denoted as A) | A (a compound having 10 or more and less than 20 is denoted as A) |  |  |
